From PMC4564450, “Oral and inhaled p38 MAPK inhibitors: effects on inhaled LPS challenge in healthy subjects” (European Journal of Clinical Pharmacology, 2015)

How the values were obtained:
[1] = system: IL-6, MCP-1, MIP1β, CC16, fibrinogen and CRP levels in plasma; experiment: Inhaled LPS challenge: plasma protein biomarkers; type: in vivo, human; settings: study 2
Experimental: Blood samples were obtained in studies 2 and 3 to obtain plasma measurements of IL-6, MCP-1, MIP1β, CC16, fibrinogen and CRP levels; pre-dose and 6 h post-LPS samples were used for statistical analysis. This coincided with the timings of sputum measurements of inflammation biomarkers.
Systemic biomarkers were analysed using a similar mixed effects model; these models also adjusted for pre-dose baseline values, which were obtained 24 h prior to LPS challenge in study 2 and 30 min prior to LPS challenge in study 3.

[2] = healthy subjects; ref previous phase 1 studies (unpublished); cited from earlier work
[3] = Safety: treatment emergent adverse events; type: in vivo, human
Experimental: Safety was assessed in these studies by physical examinations, haematology and biochemistry measurements, ECG analysis and reporting of any adverse events.
Summary of Number ofSubjects Experiencing Treatment EmergentAdverse Events by MedDRA System Organ Class

[4] = system: phospho-HSP27 expression in sputum macrophages; experiment: Immunocytochemistry of sputum macrophages: phospho-HSP27; type: in vivo, human; settings: study 2; PH-797804 30 mg oral or PF-03715455 20 mg inhaled; Post-LPS
Experimental: (§1) Frozen cytospins created from sputum cells were analysed for phosphorylated-Heat Shock Protein 27 (phospho-HSP27) and phospho-p38 expression in sputum macrophages. The methods are fully described in the online supplement. Phospho-p38 and phospho-HSP27 immunoreactivity is presented as percentage of the macrophage population. All analyses were carried out by blinded observers.
Frozen cytospins created from sputum cells were thawed and the cells were fixed in 4% paraformaldehyde in PBS for 10 minutes at room temperature, followed by blocking in normal serum. […] Phospho-p38 and phospho-HSP27 were detected using biotinylated goat anti-rabbit IgG secondary antibody (Vector Labs, Peterborough, UK) in conjunction with an avidin–biotin peroxidase complex (Vector Labs) and 3,3’-diaminobenzidine (DAB) substrate. […]
Digital micrographs were obtained through the use of a Nikon Eclipse 80i microscope (Nikon UK Ltd, Surrey, UK) equipped with a QImaging digital camera (Media cybernetics, Marlow, UK) and ImageProPlus 5.1 software (Media Cybernetics). Sputum macrophages (determined by morphology) were analysed for phospho-p38 and phospho-HSP27 expression following single label immunohistochemistry utilising the ImagePro Plus image analysis software; at least 200 macrophages per cytospin were counted. […]

[5] = system: sputum neutrophils and macrophages after inhaled LPS; experiment: Inhaled LPS challenge in healthy subjects: induced sputum cell counts; type: in vivo, human; settings: for Mean (SD) sputum neutrophil percentage: 6 h post-LPS
Experimental: Three randomised, double-blind, placebo-controlled crossover studies were performed; the effects of a single dose of active treatment was investigated in all three studies. […] Studies 2 and 3 were conducted at two UK centres: Quintiles Drug Research Unit, London, and Medicines Evaluation Unit, Manchester. […] The studies were performed during the following time periods: study 1, Sep 2006–Mar 2008; study 2, Jan 2011–Dec 2011; and study 3, Jul 2011–Jan 2012. The design of all three studies was similar. A baseline sputum sample was obtained within 14 days of the first study period when subjects were administered a single dose of randomised treatment. […] Induced sputum was obtained 6 h later to coincide with the maximal inflammatory response caused by inhaled LPS. […] This criterion was used to ensure that sputum cell counts after LPS challenge had returned to close to the original baseline values; this was done to reduce data variability between treatment periods. […] For each challenge, a 1-mg vial of lyophilised LPS (Escherichia coli serotype O26:B6, ref. L-2654, Sigma-Aldrich, Dorset, UK) was diluted with 4 mL of 0.9 % w/v sodium chloride. The reconstitution produced a 0.25 mg/mL solution, of which 2 mL was placed into the pre-calibrated dosimeter pot and administered via five inhalations from a breath-activated dosimeter (Mefar dosimeter MB3, Brescia, Italy). Each inhalation was performed over 3 s with a 6-s breath hold. […] Sputum was induced using normal saline after inhalation of salbutamol, and processing was performed using dithiothreitol (DTT) as previously described. The supernatants were stored at −80 °C for later analysis, while cells were used to produce cytoslides (Cytospin 4, Shandon, Runcorn, UK) for differential cell counting and immunocytochemistry. […] Cell viability was analysed by trypan blue exclusion. Cytoslides with % squamous cell counts <20 % were deemed to be of acceptable quality for differential cell counting. Unfixed cytoslides were wrapped in aluminium foil and stored frozen at −80 °C for immunocytochemistry. Sputum neutrophil percentage was the primary endpoint for all three studies. The neutrophil percentage was modelled using a mixed effects analysis of covariance (ANCOVA) model appropriate for a two-period, two-treatment or three-period, three-treatment crossover design. The fixed effects in the model were treatment and period. Subjects were modelled as a random effect. Additionally, the period-specific baseline was modelled as a covariate. This model was used for all sputum inflammatory markers, including the immunohistocytochemistry, where cell counts were log transformed before analyzing the data and percent differentials were not transformed. […] Ninety percent confidence intervals of the difference (non-transformed data) or the ratio (log-transformed data) were constructed based on the ANCOVA model.

[6] = system: IL-8 production from epithelial cells; design: method as in Pfizer, data on file; settings: ref Pfizer, data on file; cited from earlier work
[7] = system: phospho-p38 expression in sputum macrophages; experiment: Immunocytochemistry of sputum macrophages: phospho-p38; type: in vivo, human; settings: study 2; PH-797804 30 mg oral or PF-03715455 20 mg inhaled; Post-LPS
Experimental: as §1
Frozen cytospins created from sputum cells were thawed and the cells were fixed in 4% paraformaldehyde in PBS for 10 minutes at room temperature, followed by blocking in normal serum. Cytospins were then incubated with the following primary antibodies overnight at 4 °C; anti-human phosphorylated-p38 (phospho-p38) MAPK (Thr180/Tyr182) antibody (Cat No. 9211S, New England Biolabs, Herts, UK) or phosphorylated-Heat Shock Protein 27 (phospho-HSP27 [Cat No. S82, New England Biolabs]) diluted 1:50 in 1.5% normal serum with 0.5% Triton X-100 (Sigma-Aldrich). Endogenous peroxidase was quenched by incubating cytospins in 3% H2O2 in methanol (0.3% for phospho-p38). Phospho-p38 and phospho-HSP27 were detected using biotinylated goat anti-rabbit IgG secondary antibody (Vector Labs, Peterborough, UK) in conjunction with an avidin–biotin peroxidase complex (Vector Labs) and 3,3’-diaminobenzidine (DAB) substrate. Cell nuclei were counterstained with Gill’s haematoxylin (Sigma-Aldrich). Omission of primary antibody in staining protocol was used as a negative control.
Digital micrographs were obtained through the use of a Nikon Eclipse 80i microscope (Nikon UK Ltd, Surrey, UK) equipped with a QImaging digital camera (Media cybernetics, Marlow, UK) and ImageProPlus 5.1 software (Media Cybernetics). Sputum macrophages (determined by morphology) were analysed for phospho-p38 and phospho-HSP27 expression following single label immunohistochemistry utilising the ImagePro Plus image analysis software; at least 200 macrophages per cytospin were counted. Phospho-p38 and phospho-HSP27 immunoreactivity was presented as percentage of the macrophage population. All analysis was carried out by blinded observers.

[8] = PH-797804 30 mg oral or PF-03715455 20 mg inhaled, 6 hrs post LPS
[9] = study 2, PF-03715455 20mg (n=27), PH-797804 30mg (n=23)
[10] = study 1, PH-797804 30 mg oral, post LPS, ANCOVA model mean
[11] = study 2, PH-797804 30 mg oral or PF-03715455 20 mg inhaled, post LPS, ANCOVA model mean

For `CNC(=O)c1ccc(C)c(-n2c(C)cc(OCc3ccc(F)cc3F)c(Br)c2=O)c1` [PH-797804], the “Plasma CC16, mean” value [1, 8] was 9.34 ng/mL, the “Plasma CRP, mean” value [1, 8] was 462.10 ng/mL and the “Plasma Fibrinogen, mean” value [1, 8] was 2172.70 µg/mL. The “Plasma IL-6, mean” value [1, 8] was 5.47 pg/mL, the “Plasma MCP-1, mean” value [1, 8] was 261.50 pg/mL and the “Plasma MIP-1β, mean” value [1, 8] was 33.82 pg/mL. For the same molecule, the “plasma IL-6, MIP1β, MCP-1, CC16 and CRP levels compared to placebo” value ([1]; PH-797804 30 mg oral, 6 h post-LPS challenge) was “statistically significant reductions”, the “time of maximum systemic concentration (tmax)” value [2] was “approximately 24 h” and the safety and tolerability ([3]; single doses, healthy subjects, studies 1 and 2) was “safe and generally well tolerated”. For the same molecule, the “Number of subjects with treatment emergent AE: Eye Disorders” value ([3]; study 1, PH-797804 30mg (n=17)) was 1, the “Number of subjects with treatment emergent AE: Gastrointestinal Disorders” value ([3]; study 1, PH-797804 30mg (n=17)) was 0 and the “Number of subjects with treatment emergent AE: General Disorders and Administration Site Conditions” value ([3]; study 1, PH-797804 30mg (n=17)) was 1. For the same molecule, the “Number of subjects with treatment emergent AE: Infections and infestations” value ([3]; study 1, PH-797804 30mg (n=17)) was 1, the “Number of subjects with treatment emergent AE: Injury, Poisoning and Procedural Complications” value ([3]; study 1, PH-797804 30mg (n=17)) was 1 and the “Number of subjects with treatment emergent AE: Investigation (raised blood potassium)” value ([3]; study 1, PH-797804 30mg (n=17)) was 0. For the same molecule, the “Number of subjects with treatment emergent AE: Musculoskeletal and Connective tissue disorders” value ([3]; study 1, PH-797804 30mg (n=17)) was 1, the “Number of subjects with treatment emergent AE: Nervous system disorders” value ([3]; study 1, PH-797804 30mg (n=17)) was 2 and the “Number of subjects with treatment emergent AE: Respiratory, thoracic and mediastinal disorders” value ([3]; study 1, PH-797804 30mg (n=17)) was 0. The “Number of subjects with treatment emergent AE: Skin and subcutaneous tissue disorders” value ([3]; study 1, PH-797804 30mg (n=17)) was 0, the “Number of subjects with treatment emergent AE: Psychiatric disorders” value ([3]; study 1, PH-797804 30mg (n=17), event was insomnia lasting 1 hr) was 1 and the “Number of subjects with treatment emergent AE: Eye Disorders” value [3, 9] was 1. The “Number of subjects with treatment emergent AE: Gastrointestinal Disorders” value [3, 9] was 0, the “Number of subjects with treatment emergent AE: General Disorders and Administration Site Conditions” value [3, 9] was 3 and the “Number of subjects with treatment emergent AE: Immune system disorders” value [3, 9] was 0. For the same molecule, the “Number of subjects with treatment emergent AE: Infections and infestations” value [3, 9] was 2, the “Number of subjects with treatment emergent AE: Injury, Poisoning and Procedural Complications” value [3, 9] was 1 and the “Number of subjects with treatment emergent AE: Musculoskeletal and Connective tissue disorders” value [3, 9] was 0. The “Number of subjects with treatment emergent AE: Nervous system disorders” value [3, 9] was 8, the “Number of subjects with treatment emergent AE: Respiratory, thoracic and mediastinal disorders” value [3, 9] was 3 and the “Number of subjects with treatment emergent AE: Skin and subcutaneous tissue disorders” value [3, 9] was 0. The “Number of subjects with treatment emergent AE: Vascular disorders” value [3, 9] was 0, the “Number of subjects with treatment emergent AE: Psychiatric disorders” value ([3]; study 2, PF-03715455 20mg (n=27), PH-797804 30mg (n=23), hangover (PF-03715455), loss of libido and insomnia (PH-797804)) was 2 and the “mean percentage of macrophages expressing phospho-HSP27” value [4] was 42.27%. The “attenuation of the modelled LPS response (sputum neutrophil percentage)” value ([5]; PH-797804: studies 1 and 2, PF-03715455: study 2) was “approximately 50%”, the “Mean (SD) sputum neutrophil percentage” value ([5]; study 1, PH-797804 30 mg oral single dose) was 56.4 (24.0) % and the “reduction in mean sputum neutrophil percentage post-LPS compared to placebo” value ([5]; study 1, PH-797804 30 mg oral single dose, p = 0.0096) was 15.1%. The “Total Macrophage Count in sputum” value [5, 10] was 470000 g⁻¹, the “Total Neutrophil Count in sputum” value [5, 10] was 660000 g⁻¹ and the “reduction in mean sputum neutrophil percentage post-LPS compared to placebo” value ([5]; study 2, PH-797804 30 mg oral (p = 0.0001) or PF-03715455 20 mg inhaled (p = 0.031), single dose) was 15.3%. For the same molecule, the “Mean (SD) sputum neutrophil percentage” value ([5]; study 2, PH-797804 30 mg oral or PF-03715455 20 mg inhaled, single dose) was 60.4 (17.9) %, the “Macrophage Differential in sputum” value [5, 11] was 36.39% and the “Total Cell Count in sputum” value [5, 11] was 2.02e+06 g⁻¹. The “Total Macrophage Count in sputum” value [5, 11] was 620000 g⁻¹, the “Total Neutrophil Count in sputum” value [5, 11] was 1.17e+06 g⁻¹ and the “IL-8 production from epithelial cells” value [6] was “significantly inhibit”. For the same molecule, the “mean percentage of macrophages expressing phospho-p38” value [7] was 38.00%.
